Laboratory results taken from the NIST ThermoML archive (doi:10.1021/je500381c).
Numbers after ± are expanded uncertainties.

Experiment: xn = mol fraction of the nth substance listed
Conditions: for mass density / viscosity: 100 kPa, Liquid; for mass density: Vibrating tube method; for surface tension liquid-gas: Drop volume

## OCC1CCCCC1 [cyclohexylmethanol] + CC12CC3CC(C1)CC(C)(C3)C2
293.15 K, x1 = 0.1027
  mass density: 903.21 ± 0.12 kg/m3
  viscosity: 4.113 ± 0.064 mPa·s
293.15 K, x1 = 0.1995
  mass density: 905.07 ± 0.12 kg/m3
  viscosity: 4.718 ± 0.073 mPa·s
293.15 K, x1 = 0.3012
  mass density: 907.15 ± 0.12 kg/m3
  viscosity: 5.602 ± 0.087 mPa·s
293.15 K, x1 = 0.4004
  mass density: 909.76 ± 0.12 kg/m3
  viscosity: 6.901 ± 0.11 mPa·s
293.15 K, x1 = 0.4973
  mass density: 912.51 ± 0.12 kg/m3
  viscosity: 8.435 ± 0.13 mPa·s
293.15 K, x1 = 0.6008
  mass density: 915.54 ± 0.12 kg/m3
  viscosity: 11.2 ± 0.17 mPa·s
293.15 K, x1 = 0.7002
  mass density: 918.7 ± 0.12 kg/m3
  viscosity: 14.93 ± 0.23 mPa·s
293.15 K, x1 = 0.7892
  mass density: 922.49 ± 0.12 kg/m3
  viscosity: 21.14 ± 0.33 mPa·s
293.15 K, x1 = 0.9
  mass density: 925.92 ± 0.13 kg/m3
  viscosity: 28.69 ± 0.45 mPa·s
293.15 K, x1 = 1
  mass density: 929.76 ± 0.13 kg/m3
  viscosity: 37.75 ± 0.59 mPa·s
298.15 K, x1 = 0.1002
  surface tension liquid-gas: 28.2 ± 0.16 mN/m
298.15 K, x1 = 0.1995
  surface tension liquid-gas: 28.36 ± 0.16 mN/m
  mass density: 901.44 ± 0.12 kg/m3
  viscosity: 4.111 ± 0.064 mPa·s
298.15 K, x1 = 0.2996
  surface tension liquid-gas: 28.56 ± 0.16 mN/m
298.15 K, x1 = 0.4004
  surface tension liquid-gas: 28.74 ± 0.16 mN/m
  mass density: 906.13 ± 0.12 kg/m3
  viscosity: 5.842 ± 0.091 mPa·s
298.15 K, x1 = 0.4973
  surface tension liquid-gas: 28.95 ± 0.16 mN/m
  mass density: 908.85 ± 0.12 kg/m3
  viscosity: 7.114 ± 0.11 mPa·s
298.15 K, x1 = 0.6008
  surface tension liquid-gas: 29.35 ± 0.16 mN/m
  mass density: 911.97 ± 0.12 kg/m3
  viscosity: 9.121 ± 0.14 mPa·s
298.15 K, x1 = 0.7002
  surface tension liquid-gas: 29.83 ± 0.17 mN/m
  mass density: 915.07 ± 0.12 kg/m3
  viscosity: 11.9 ± 0.19 mPa·s
298.15 K, x1 = 0.7999
  surface tension liquid-gas: 30.46 ± 0.17 mN/m
298.15 K, x1 = 0.9
  surface tension liquid-gas: 31.33 ± 0.17 mN/m
  mass density: 922.36 ± 0.13 kg/m3
  viscosity: 22.11 ± 0.35 mPa·s
298.15 K, x1 = 1
  surface tension liquid-gas: 32.43 ± 0.18 mN/m
  mass density: 926.25 ± 0.13 kg/m3
  viscosity: 28.67 ± 0.45 mPa·s
298.15 K, x1 = 0.1027
  mass density: 899.59 ± 0.12 kg/m3
  viscosity: 3.615 ± 0.056 mPa·s
298.15 K, x1 = 0.3012
  mass density: 903.51 ± 0.12 kg/m3
  viscosity: 4.827 ± 0.075 mPa·s
298.15 K, x1 = 0.7892
  mass density: 918.88 ± 0.13 kg/m3
  viscosity: 16.63 ± 0.26 mPa·s
303.15 K, x1 = 0.1027
  mass density: 895.96 ± 0.12 kg/m3
  viscosity: 3.204 ± 0.05 mPa·s
303.15 K, x1 = 0.1995
  mass density: 897.78 ± 0.12 kg/m3
  viscosity: 3.618 ± 0.056 mPa·s
303.15 K, x1 = 0.3012
  mass density: 899.85 ± 0.12 kg/m3
  viscosity: 4.192 ± 0.065 mPa·s
303.15 K, x1 = 0.4004
  mass density: 902.45 ± 0.12 kg/m3
  viscosity: 5.005 ± 0.078 mPa·s
303.15 K, x1 = 0.4973
  mass density: 905.16 ± 0.12 kg/m3
  viscosity: 5.993 ± 0.093 mPa·s
303.15 K, x1 = 0.6008
  mass density: 908.3 ± 0.12 kg/m3
  viscosity: 7.528 ± 0.12 mPa·s
303.15 K, x1 = 0.7002
  mass density: 911.44 ± 0.13 kg/m3
  viscosity: 9.63 ± 0.15 mPa·s
303.15 K, x1 = 0.7892
  mass density: 915.23 ± 0.13 kg/m3
  viscosity: 13.35 ± 0.21 mPa·s
303.15 K, x1 = 0.9
  mass density: 918.75 ± 0.13 kg/m3
  viscosity: 17.36 ± 0.27 mPa·s
303.15 K, x1 = 1
  mass density: 922.71 ± 0.13 kg/m3
  viscosity: 22.34 ± 0.35 mPa·s
308.15 K, x1 = 0.1027
  mass density: 892.31 ± 0.12 kg/m3
  viscosity: 2.857 ± 0.044 mPa·s
308.15 K, x1 = 0.1995
  mass density: 894.11 ± 0.12 kg/m3
  viscosity: 3.194 ± 0.05 mPa·s
308.15 K, x1 = 0.3012
  mass density: 896.17 ± 0.12 kg/m3
  viscosity: 3.666 ± 0.057 mPa·s
308.15 K, x1 = 0.4004
  mass density: 898.75 ± 0.12 kg/m3
  viscosity: 4.326 ± 0.067 mPa·s
308.15 K, x1 = 0.4973
  mass density: 901.46 ± 0.12 kg/m3
  viscosity: 5.097 ± 0.079 mPa·s
308.15 K, x1 = 0.6008
  mass density: 904.6 ± 0.13 kg/m3
  viscosity: 6.204 ± 0.097 mPa·s
308.15 K, x1 = 0.7002
  mass density: 907.77 ± 0.13 kg/m3
  viscosity: 7.907 ± 0.12 mPa·s
308.15 K, x1 = 0.7892
  mass density: 911.57 ± 0.13 kg/m3
  viscosity: 10.82 ± 0.17 mPa·s
308.15 K, x1 = 0.9
  mass density: 915.12 ± 0.13 kg/m3
  viscosity: 13.92 ± 0.22 mPa·s
308.15 K, x1 = 1
  mass density: 919.14 ± 0.13 kg/m3
  viscosity: 17.57 ± 0.28 mPa·s
313.15 K, x1 = 0.1027
  mass density: 888.65 ± 0.12 kg/m3
  viscosity: 2.56 ± 0.04 mPa·s
313.15 K, x1 = 0.1995
  mass density: 890.42 ± 0.12 kg/m3
  viscosity: 2.841 ± 0.044 mPa·s
313.15 K, x1 = 0.3012
  mass density: 892.47 ± 0.12 kg/m3
  viscosity: 3.229 ± 0.05 mPa·s
313.15 K, x1 = 0.4004
  mass density: 895.03 ± 0.12 kg/m3
  viscosity: 3.764 ± 0.059 mPa·s
313.15 K, x1 = 0.4973
  mass density: 897.73 ± 0.13 kg/m3
  viscosity: 4.377 ± 0.068 mPa·s
313.15 K, x1 = 0.6008
  mass density: 900.87 ± 0.13 kg/m3
  viscosity: 5.311 ± 0.083 mPa·s
313.15 K, x1 = 0.7002
  mass density: 904.09 ± 0.13 kg/m3
  viscosity: 6.578 ± 0.1 mPa·s
313.15 K, x1 = 0.7892
  mass density: 907.87 ± 0.13 kg/m3
  viscosity: 8.883 ± 0.14 mPa·s
313.15 K, x1 = 0.9
  mass density: 911.45 ± 0.13 kg/m3
  viscosity: 11.3 ± 0.18 mPa·s
313.15 K, x1 = 1
  mass density: 915.53 ± 0.13 kg/m3
  viscosity: 14.09 ± 0.22 mPa·s
318.15 K, x1 = 0.1027
  mass density: 884.98 ± 0.12 kg/m3
  viscosity: 2.305 ± 0.036 mPa·s
318.15 K, x1 = 0.1995
  mass density: 886.71 ± 0.12 kg/m3
  viscosity: 2.539 ± 0.04 mPa·s
318.15 K, x1 = 0.3012
  mass density: 888.75 ± 0.12 kg/m3
  viscosity: 2.859 ± 0.045 mPa·s
318.15 K, x1 = 0.4004
  mass density: 891.29 ± 0.13 kg/m3
  viscosity: 3.299 ± 0.051 mPa·s
318.15 K, x1 = 0.4973
  mass density: 893.98 ± 0.13 kg/m3
  viscosity: 3.787 ± 0.059 mPa·s
318.15 K, x1 = 0.6008
  mass density: 897.11 ± 0.13 kg/m3
  viscosity: 4.529 ± 0.071 mPa·s
318.15 K, x1 = 0.7002
  mass density: 900.37 ± 0.13 kg/m3
  viscosity: 5.508 ± 0.086 mPa·s
318.15 K, x1 = 0.7892
  mass density: 904.14 ± 0.13 kg/m3
  viscosity: 7.34 ± 0.12 mPa·s
318.15 K, x1 = 0.9
  mass density: 907.74 ± 0.13 kg/m3
  viscosity: 9.262 ± 0.14 mPa·s
318.15 K, x1 = 1
  mass density: 911.88 ± 0.13 kg/m3
  viscosity: 11.43 ± 0.18 mPa·s
323.15 K, x1 = 0.1027
  mass density: 881.29 ± 0.12 kg/m3
  viscosity: 2.085 ± 0.033 mPa·s
323.15 K, x1 = 0.1995
  mass density: 882.99 ± 0.13 kg/m3
  viscosity: 2.28 ± 0.036 mPa·s
323.15 K, x1 = 0.3012
  mass density: 885.01 ± 0.13 kg/m3
  viscosity: 2.546 ± 0.04 mPa·s
323.15 K, x1 = 0.4004
  mass density: 887.53 ± 0.13 kg/m3
  viscosity: 2.911 ± 0.045 mPa·s
323.15 K, x1 = 0.4973
  mass density: 890.21 ± 0.13 kg/m3
  viscosity: 3.302 ± 0.052 mPa·s
323.15 K, x1 = 0.6008
  mass density: 893.33 ± 0.13 kg/m3
  viscosity: 3.896 ± 0.061 mPa·s
323.15 K, x1 = 0.7002
  mass density: 896.61 ± 0.13 kg/m3
  viscosity: 4.604 ± 0.072 mPa·s
323.15 K, x1 = 0.7892
  mass density: 900.37 ± 0.13 kg/m3
  viscosity: 6.145 ± 0.096 mPa·s
323.15 K, x1 = 0.9
  mass density: 904 ± 0.13 kg/m3
  viscosity: 7.642 ± 0.12 mPa·s
323.15 K, x1 = 1
  mass density: 908.19 ± 0.13 kg/m3
  viscosity: 9.354 ± 0.15 mPa·s
328.15 K, x1 = 0.1027
  mass density: 877.59 ± 0.13 kg/m3
  viscosity: 1.894 ± 0.03 mPa·s
328.15 K, x1 = 0.1995
  mass density: 879.24 ± 0.13 kg/m3
  viscosity: 2.057 ± 0.032 mPa·s
328.15 K, x1 = 0.3012
  mass density: 881.25 ± 0.13 kg/m3
  viscosity: 2.279 ± 0.036 mPa·s
328.15 K, x1 = 0.4004
  mass density: 883.75 ± 0.13 kg/m3
  viscosity: 2.58 ± 0.04 mPa·s
328.15 K, x1 = 0.4973
  mass density: 886.41 ± 0.13 kg/m3
  viscosity: 2.898 ± 0.045 mPa·s
328.15 K, x1 = 0.6008
  mass density: 889.51 ± 0.13 kg/m3
  viscosity: 3.375 ± 0.053 mPa·s
328.15 K, x1 = 0.7002
  mass density: 892.81 ± 0.13 kg/m3
  viscosity: 3.992 ± 0.062 mPa·s
328.15 K, x1 = 0.7892
  mass density: 896.56 ± 0.13 kg/m3
  viscosity: 5.076 ± 0.079 mPa·s
328.15 K, x1 = 0.9
  mass density: 900.21 ± 0.13 kg/m3
  viscosity: 6.342 ± 0.099 mPa·s
328.15 K, x1 = 1
  mass density: 904.45 ± 0.13 kg/m3
  viscosity: 7.766 ± 0.12 mPa·s
333.15 K, x1 = 0.1027
  mass density: 873.88 ± 0.13 kg/m3
  viscosity: 1.727 ± 0.027 mPa·s
333.15 K, x1 = 0.1995
  mass density: 875.48 ± 0.13 kg/m3
  viscosity: 2.105 ± 0.033 mPa·s
333.15 K, x1 = 0.3012
  mass density: 877.47 ± 0.13 kg/m3
  viscosity: 2.048 ± 0.032 mPa·s
333.15 K, x1 = 0.4004
  mass density: 879.94 ± 0.13 kg/m3
  viscosity: 2.3 ± 0.036 mPa·s
333.15 K, x1 = 0.4973
  mass density: 882.58 ± 0.13 kg/m3
  viscosity: 2.56 ± 0.04 mPa·s
333.15 K, x1 = 0.6008
  mass density: 885.67 ± 0.13 kg/m3
  viscosity: 2.946 ± 0.046 mPa·s
333.15 K, x1 = 0.7002
  mass density: 888.98 ± 0.13 kg/m3
  viscosity: 3.443 ± 0.054 mPa·s
333.15 K, x1 = 0.7892
  mass density: 892.71 ± 0.13 kg/m3
  viscosity: 4.253 ± 0.067 mPa·s
333.15 K, x1 = 0.9
  mass density: 896.38 ± 0.13 kg/m3
  viscosity: 5.984 ± 0.094 mPa·s
333.15 K, x1 = 1
  mass density: 900.67 ± 0.13 kg/m3
  viscosity: 6.462 ± 0.1 mPa·s
